US9783536B2, “Nitrogen-containing heterocyclic compound or salt thereof” (FUJIFILM Corporation, priority 2013, dated 2017)
Where two headings read alike, the source gives them in different places.

Key:
human PI3Kα protein = target: T1, human PI3Kα protein (Homo sapiens, UniProt P42336); assay: PI3Kα enzyme assay (ADP-Glo); assay type: biochemical; conditions: read-out: PI3Kα enzyme inhibitory activity
T1 construct: purchased Carna Biosciences, Inc; host or cells: baculovirus expression system
Method in brief: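 Biotinylated human PI3Kα (baculovirus-expressed, 4.5 nmol/L) pre-incubated 15 min with compound in Tris-HCl pH 7.5, MgCl2, BSA; reaction 60 min at 25° C with 50 μmol/L PIP2 and 100 μmol/L ATP final. ADP quantified by ADP-Glo luminescence; IC50 calculated.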

CHO-K1 cells = assay: CHO cell toxicity test; assay type: cell-based, Chinese hamster; conditions: Cricetulus griseus; CHO-K1 cells, 24 hours culture with compound, CellTiter-Glo; read-out: IC50 value (concentration at which the number of viable cells was suppressed to 50% or less)
Method in brief: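 CHO-K1 cells were cultured 24 h, then exposed 24 h to compound at final 25.00 to 0.20 μmol/L in F-12 with 2% FCS. Viability read by CellTiter-Glo luminescence; inhibition % = 100 − (treated/untreated signal)×100.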

[1] = target: T2, GST fusion human ERK2 protein (Homo sapiens, UniProt P28482); assay: ERK2 enzyme assay (2); assay type: biochemical; conditions: read-out: ERK2 enzyme inhibitory activity (2)
T2 construct: purchased Carna Biosciences, Inc; host or cells: E. coli expression system
Method in brief: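 IC50 values come from mobility-shift measurement of phosphorylated versus unphosphorylated 5-FAM peptide substrate after EDTA quench. Beforehand, compound and 1.25 nmol/L E. coli-expressed GST–human ERK2 stood 15 min at room temperature (pH 7.5), then 1 mmol/L ATP and 4.25 μmol/L substrate (final) were added for 120 min at 25 °C.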

[2] = target: T2, GST fusion human ERK2 protein; assay: ERK2 enzyme assay (1); assay type: biochemical; conditions: read-out: ERK2 enzyme inhibitory activity (1)
Method in brief: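 IC50 derived from the proportion of phosphorylated 5-FAM peptide, separated from unphosphorylated peptide by microfluidic mobility shift. Compound was first preincubated 15 min at room temperature with 2.5 nmol/L kinase at pH 7.5, then 43.1 μmol/L ATP plus 4.25 μmol/L substrate reacted 120 min at 25 °C.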

[3] = 4.5 nmol/L PI3Kα, PIP2 50 μmol/L, ATP 100 μmol/L
[4] = 2.5 nmol/L ERK2, ATP 43.1 μmol/L

T1 sequence (P42336 whole entry): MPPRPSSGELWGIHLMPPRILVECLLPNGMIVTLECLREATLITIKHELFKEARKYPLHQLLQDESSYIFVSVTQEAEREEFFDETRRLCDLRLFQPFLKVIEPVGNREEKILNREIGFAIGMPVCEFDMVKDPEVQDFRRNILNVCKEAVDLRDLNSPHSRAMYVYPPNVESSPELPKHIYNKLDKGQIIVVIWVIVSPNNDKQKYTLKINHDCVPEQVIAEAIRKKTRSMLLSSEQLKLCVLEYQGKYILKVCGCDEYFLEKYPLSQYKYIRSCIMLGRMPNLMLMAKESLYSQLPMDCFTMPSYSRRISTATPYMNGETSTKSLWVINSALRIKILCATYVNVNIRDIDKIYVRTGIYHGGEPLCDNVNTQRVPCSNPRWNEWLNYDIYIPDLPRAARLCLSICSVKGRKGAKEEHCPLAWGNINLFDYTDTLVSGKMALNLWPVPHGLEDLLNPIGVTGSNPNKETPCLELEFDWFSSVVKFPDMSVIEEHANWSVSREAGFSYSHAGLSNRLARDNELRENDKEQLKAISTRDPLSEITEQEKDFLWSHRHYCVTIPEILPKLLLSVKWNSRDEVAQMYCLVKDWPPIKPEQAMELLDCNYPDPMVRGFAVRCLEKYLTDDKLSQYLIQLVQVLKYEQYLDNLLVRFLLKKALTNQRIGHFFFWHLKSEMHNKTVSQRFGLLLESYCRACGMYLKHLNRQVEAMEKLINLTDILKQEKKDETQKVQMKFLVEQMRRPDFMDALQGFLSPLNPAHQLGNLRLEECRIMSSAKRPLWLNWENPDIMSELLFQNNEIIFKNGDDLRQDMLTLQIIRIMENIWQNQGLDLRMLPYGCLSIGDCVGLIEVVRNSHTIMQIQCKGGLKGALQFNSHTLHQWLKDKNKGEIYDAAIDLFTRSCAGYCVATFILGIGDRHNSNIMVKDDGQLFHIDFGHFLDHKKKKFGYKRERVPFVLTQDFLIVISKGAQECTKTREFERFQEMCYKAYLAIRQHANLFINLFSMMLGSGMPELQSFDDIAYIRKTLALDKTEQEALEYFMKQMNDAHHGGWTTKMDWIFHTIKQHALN
T1 sequence (P27986 whole entry partner): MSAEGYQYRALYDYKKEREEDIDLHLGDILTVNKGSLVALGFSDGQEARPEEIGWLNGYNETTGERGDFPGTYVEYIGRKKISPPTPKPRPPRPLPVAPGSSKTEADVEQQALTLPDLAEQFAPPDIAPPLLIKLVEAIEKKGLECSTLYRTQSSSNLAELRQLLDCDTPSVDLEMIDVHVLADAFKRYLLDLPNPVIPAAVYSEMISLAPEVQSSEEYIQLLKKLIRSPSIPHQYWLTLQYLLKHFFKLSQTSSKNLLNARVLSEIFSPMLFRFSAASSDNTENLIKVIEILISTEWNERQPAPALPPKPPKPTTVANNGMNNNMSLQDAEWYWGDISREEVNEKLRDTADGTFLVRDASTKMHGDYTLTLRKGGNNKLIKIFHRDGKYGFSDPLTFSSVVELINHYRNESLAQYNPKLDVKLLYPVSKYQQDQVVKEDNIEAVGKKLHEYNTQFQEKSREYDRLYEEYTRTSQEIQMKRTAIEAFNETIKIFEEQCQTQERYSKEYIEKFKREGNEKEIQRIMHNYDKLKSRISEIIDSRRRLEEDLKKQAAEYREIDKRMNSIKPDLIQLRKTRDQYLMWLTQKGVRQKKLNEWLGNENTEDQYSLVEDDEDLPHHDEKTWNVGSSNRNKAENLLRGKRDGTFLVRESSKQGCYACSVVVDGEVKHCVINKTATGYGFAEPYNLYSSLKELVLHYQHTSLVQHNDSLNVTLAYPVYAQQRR
T2 sequence (P28482 whole entry, the tested form may be a part): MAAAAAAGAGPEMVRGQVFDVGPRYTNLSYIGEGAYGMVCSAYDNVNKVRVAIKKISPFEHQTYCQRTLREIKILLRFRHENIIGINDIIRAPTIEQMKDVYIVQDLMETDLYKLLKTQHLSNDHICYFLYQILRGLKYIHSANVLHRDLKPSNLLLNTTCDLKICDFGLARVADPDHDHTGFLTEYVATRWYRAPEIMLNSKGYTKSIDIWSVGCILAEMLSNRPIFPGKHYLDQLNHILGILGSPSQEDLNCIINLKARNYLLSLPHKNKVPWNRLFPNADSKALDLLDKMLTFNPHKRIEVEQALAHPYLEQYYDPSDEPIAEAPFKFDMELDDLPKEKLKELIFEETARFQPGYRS

| IC50 (human PI3Kα protein) [nM] | IC50 ([1]; ERK2 enzyme assay (2)) [nM] | IC50 ([2]; ERK2 enzyme assay (1)) [nM] | IC50 (human PI3Kα protein; [3]) [nM] | IC50 ([1]; 1.25 nmol/L ERK2, ATP 1 mmol/L) [nM] | IC50 [2, 4] [nM] | Compound | IC50 (CHO-K1 cells) [nM] |
| --- | --- | --- | --- | --- | --- | --- | --- |
| < 1000 | < 1000 | < 1000 | – | – | – | CC(C)c1cnnc(Nc2ccc3ncc(-c4cnn(CCCN5CCOCC5)c4)cc3n2)c1 [Example 0368] | ≥ 25000 |
| < 1000 | < 1000 | < 1000 | – | – | – | FC1(F)CCN(CCCn2cc(-c3cnc4ccc(Nc5nnc(C6CCCC6)s5)nc4c3)cn2)C1 [Example 0352] | ≥ 25000 |
| < 1000 | < 1000 | < 1000 | – | – | – | Cc1nn(CCCN2CCOCC2)cc1-c1cnc2ccc(Nc3cc(C(C)C)cnn3)nc2c1 [Example 0384, N-(5-isopropylpyridazin-3-yl)-7-(3-methyl-1-(3-morpholinopropyl)-1H-pyrazol-4-yl)-1,5-naphthyridine-2-amine] | ≥ 25000 |
| < 1000 | < 1000 | < 1000 | – | – | – | CC(C)c1cnnc(Nc2ccc3ncc(-c4cnn(CCN5CCOCC5)c4)cc3n2)c1 [Example 0382, N-(5-isopropylpyridazin-3-yl)-7-(1-(2-morpholinoethyl)-1H-pyrazol-4-yl)-1,5-naphthyridine-2-amine] | ≥ 25000 |
| 1000 to 10000 | < 1000 | < 1000 | – | – | – | Cn1cc(-c2cnc3ccc(Nc4nnc(N5CCOCC5)s4)nc3c2)cn1 [Example 0226, N-(7-(1-methyl-1H-pyrazol-4-yl)-1,5-naphthyridin-2-yl)-5-morpholino-1,3,4-thiadiazole-2-amine] | ≥ 25000 |
| – | – | – | < 1000 | < 1000 | < 1000 | Cc1cnnc(Nc2ccc3ncc(-c4cnn(CCCN5CCCC5)c4)cc3n2)c1 [Example 0140] | ≥ 25000 |
| – | – | – | < 1000 | < 1000 | < 1000 | CCCCc1nn(C)cc1-c1cnc2ccc(Nc3nnc(C(C)C)s3)nc2c1 [Example 0130] | ≥ 25000 |
| < 1000 | < 1000 | < 1000 | – | – | – | O=C(CCn1cc(-c2cnc3ccc(Nc4nnc(C5CCCC5)s4)nc3c2)cn1)N1CCCC1 [Example 0341, 3-(4-(6-((5-cyclopentyl-1,3,4-thiadiazol-2-yl)amino)-1,5-naphthyridin-3-yl)-1H-pyrazol-1-yl)-1-(pyrrolidin-1-yl)propan-1-one] | ≥ 25000 |
| 1000 to 10000 | < 1000 | < 1000 | – | – | – | Cc1[nH]ncc1-c1cnc2ccc(Nc3nnc(C4CCCC4)s3)nc2c1 [Example 0214] | ≥ 25000 |
| < 1000 | < 1000 | < 1000 | – | – | – | COc1cncc(Nc2cnc3ccc(Nc4nnc(CC5CCCO5)s4)nc3c2)c1 (centres unmarked) [Example 0250, N^7-(5-methoxypyridin-3-yl)-N^2-(5-((tetrahydrofuran-2-yl)methyl)-1,3,4-thiadiazol-2-yl)-1,5-naphthyridine-2,7-diamine] | ≥ 25000 |
| 1000 to 10000 | < 1000 | < 1000 | – | – | – | Cc1c(-c2cnc3ccc(Nc4nnc(C5CCCC5)s4)nc3c2)cnn1C [Example 0348] | ≥ 25000 |
| < 1000 | < 1000 | < 1000 | – | – | – | COc1c(-c2cnn(C)c2)cnc2ccc(Nc3nnc(C4CCCC4)s3)nc12 [Example 0355, 5-cyclopentyl-N-(8-methoxy-7-(1-methyl-1H-pyrazol-4-yl)-1,5-naphthyridin-2-yl)-1,3,4-thiadiazole-2-amine] | ≥ 25000 |
| – | – | – | < 1000 | < 1000 | < 1000 | Cc1nnc(Nc2ccc3ncc(-c4cnn(C)c4)cc3n2)s1 [Example 0027] | ≥ 25000 |
| – | – | – | < 1000 | < 1000 | < 1000 | CC(C)c1cnnc(Nc2ccc3ncc(-c4cnn(C)c4)cc3n2)c1 [Example 0145] | ≥ 25000 |
| < 1000 | < 1000 | < 1000 | – | – | – | CCc1cnnc(Nc2ccc3ncc(-c4cnn(CCCN5CCCC5)c4)cc3n2)c1 [Example 0291] | ≥ 25000 |
| < 1000 | < 1000 | < 1000 | – | – | – | CC(C)c1cnnc(Nc2ccc3ncc(-c4cnn(CCC(C)(C)O)c4)cc3n2)c1 [Example 0474] | ≥ 25000 |
| < 1000 | < 1000 | < 1000 | – | – | – | CCCc1cnnc(Nc2ccc3ncc(-c4cnn(CCCN5CCCC5)c4)cc3n2)c1 [Example 0293] | ≥ 25000 |

| IC50 (human PI3Kα protein) [nM] | IC50 ([1]; ERK2 enzyme assay (2)) [nM] | IC50 ([2]; ERK2 enzyme assay (1)) [nM] | IC50 (human PI3Kα protein; [3]) [nM] | IC50 ([1]; 1.25 nmol/L ERK2, ATP 1 mmol/L) [nM] | IC50 [2, 4] [nM] | Compound | IC50 (CHO-K1 cells) [nM] |
| --- | --- | --- | --- | --- | --- | --- | --- |
| < 1000 | < 1000 | < 1000 | – | – | – | CN(C)c1cnnc(Nc2ccc3ncc(-c4cnn(CCCN5CCCC5)c4)cc3n2)c1 [Example 0403, N^5,N^5-dimethyl-N^3-(7-(1-(3-(pyrrolidin-1-yl)propyl)-1H-pyrazol-4-yl)-1,5-naphthyridin-2-yl)pyridazine-3,5-diamine] | ≥ 25000 |
| < 1000 | < 1000 | < 1000 | – | – | – | Cn1cc(-c2cnc3ccc(Nc4nnc(C5CCCO5)s4)nc3c2)cn1 (centres unmarked) [Example 0227] | ≥ 25000 |
| < 1000 | < 1000 | < 1000 | – | – | – | c1nnc(Nc2ccc3ncc(-c4cnn(CCCN5CCCC5)c4)cc3n2)s1 [Example 0322] | ≥ 25000 |
| 1000 to 10000 | < 1000 | < 1000 | – | – | – | Cn1cc(-c2cnc3ccc(Nc4nnc(CC5CCCO5)s4)nc3c2)cn1 (centres unmarked) [Example 0241] | ≥ 25000 |
| – | – | – | < 1000 | < 1000 | < 1000 | COCc1cnnc(Nc2ccc3ncc(-c4cnn(CCCN5CCCC5)c4)cc3n2)c1 [Example 0018] | ≥ 25000 |
| < 1000 | < 1000 | < 1000 | – | – | – | Cn1cc(-c2cnc3ccc(Nc4nnc(C5CCOC5)s4)nc3c2)cn1 (centres unmarked) [Example 0243, N-(7-(1-methyl-1H-pyrazol-4-yl)-1,5-naphthyridin-2-yl)-5-(tetrahydrofuran-3-yl)-1,3,4-thiadiazole-2-amine] | ≥ 25000 |
| – | – | – | < 1000 | < 1000 | < 1000 | CC(C)c1cnnc(Nc2ccc3ncc(-c4cnn(CCCN5CCCC5)c4)cc3n2)c1 [Example 0148] | ≥ 25000 |
| < 1000 | < 1000 | < 1000 | – | – | – | Cc1nn(CCCN2CCCC2)cc1-c1cnc2ccc(Nc3nnc(C(C)C)s3)nc2c1 [Example 0321, 5-isopropyl-N-(7-(3-methyl-1-(3-(pyrrolidin-1-yl)propyl)-1H-pyrazol-4-yl)-1,5-naphthyridin-2-yl)-1,3,4-thiadiazole-2-amine] | ≥ 25000 |
| – | – | – | < 1000 | < 1000 | < 1000 | CCCc1nn(C)cc1-c1cnc2ccc(Nc3nnc(C(C)C)s3)nc2c1 [Example 0122] | ≥ 25000 |
| – | – | – | < 1000 | – | < 1000 | c1nnc(Nc2ccc3ncc(-c4cnn(CCCN5CCOCC5)c4)cc3n2)s1 [Example 0001, N-(7-(1-(3-morpholinopropyl)-1H-pyrazol-4-yl)-1,5-naphthyridin-2-yl)-1,3,4-thiadiazole-2-amine] | ≥ 25000 |
| < 1000 | – | < 1000 | – | – | – | Cn1cc(-c2cnc3ccc(Nc4nnc([C@@H]5CCCO5)s4)nc3c2)cn1 [Example 0231] | ≥ 25000 |
| < 1000 | – | < 1000 | – | – | – | CC(C)c1cnnc(Nc2ccc3ncc(-c4cnn(CCCN5CCCCC5)c4)cc3n2)c1 [Example 0373, N-(5-isopropylpyridazin-3-yl)-7-(1-(3-(piperidin-1-yl)propyl)-1H-pyrazol-4-yl)-1,5-naphthyridine-2-amine] | ≥ 25000 |
| – | – | – | < 1000 | – | < 1000 | c1nc2ccc(Nc3cc(C4CCOC4)cnn3)nc2cc1-c1cnn(CCCN2CCCC2)c1 (centres unmarked) [Example 0019, 7-(1-(3-(Pyrrolidin-1-yl)propyl)-1H-pyrazol-4-yl)-N-(5-(tetrahydrofuran-3-yl)pyridazin-3-yl)-1,5-naphthyridine-2-amine] | ≥ 25000 |
| < 1000 | – | < 1000 | – | – | – | CC(C)c1cnnc(Nc2ccc3ncc(-c4cnn(CCOC5CCOCC5)c4)cc3n2)c1 [Example 0395] | ≥ 25000 |
| < 1000 | – | < 1000 | – | – | – | c1nc2ccc(Nc3nnc(C4CCOCC4)s3)nc2cc1-c1cnn(CCCN2CCCC2)c1 [Example 0245] | ≥ 25000 |
| < 1000 | – | < 1000 | – | – | – | c1nc2ccc(Nc3cc(C4CC4)cnn3)nc2cc1-c1cnn(CCCN2CCOCC2)c1 [Example 0298, N-(5-cyclopropylpyridazin-3-yl)-7-(1-(3-morpholinopropyl)-1H-pyrazol-4-yl)-1,5-naphthyridine-2-amine] | ≥ 25000 |
